Measured values taken from patent US20250034186A1, “ANTIVIRAL COMPOUNDS” (priority 2020, published 2025).

Assays:
[1] = in vitro; format: cell-based; conditions: human, read-out: CC50 GALPC3
Procedure: Compounds were tested in a high-throughput 384-well assay format for cytotoxicity in galactose-adapted PC3 cells (human prostate cancer cell line). Cells were diluted in media (DMEM (11966), 10% FBS, 1% NEAA, 0.2% Galactose, 1% Pyruvate, 1% Glutamax, 1% PSG) to 16.6K cells/mL and plated at 90 uL/well into 384 well poly-D-lysine coated assay plates and placed in an incubator at 37° C. and 5% CO2. Compounds were serially diluted (1:3) in 100% DMSO in 384-well plates in quadruplicate. DMSO and 2 mM Puromycin were included as negative and positive controls respectively. 24 hours after cell plating, a 384 channel pipettor was used to transfer 0.4 uL from the compound plate to the assay plate. Assay plates are returned to the incubator. After 5 days, assay plates are washed with 80 uL/well of PBS before addition of 20 μL of Cell Titer Glo. Assay plates are read on the Envision plate reader. […] CC50 values were calculated in Accord (on-line tool) using a one-site dose-response model to generate sigmoidal curve fits.

[2] = NHBE in-vitro intracellular triphosphate formation; format: in vitro ADME, human; conditions: 10 μM, up to 26 h, compared to compound 2 and/or 6 (FIG. 1)
Procedure: In-vitro intracellular triphosphate formation was measured for the compound of Formula I and compound 6 using the following protocol. Normal human bronchial airway epithelial cells (NHBEs) (0.25 million cells/well) were continuously incubated with 10 μM of compound for 26 hours. At select time points (2, 4, 6, and 26 h), the extracellular medium was removed from the well and the cells were washed twice with 2 mL of ice-cold 0.9% normal saline and extracted into 0.5 mL ice-cold 70% methanol containing 100 nM 2-chloro-adenosine-5′-triphosphate (Sigma-Aldrich, St. Louis, MO) as an internal standard. Samples were stored overnight at −20° C. to facilitate nucleotide extraction, centrifuged at 15,000×g for 15 minutes and then supernatant was transferred to clean tubes for drying in a MiVac Duo concentrator (Genevac, Gardiner, NY). Dried samples were then reconstituted in mobile phase A containing 3 mM ammonium formate (pH 5.0) with 10 mM dimethylhexylamine (DMHA) in water for analysis by LC-MS/MS.

[3] = PBMC in-vitro intracellular triphosphate formation assay; format: in vitro ADME; conditions: 2 μM, 2 hours incubation, compared to compound 2 and/or 6 (FIG. 2)
Procedure: In-vitro intracellular triphosphate formation was measured for the compound of Formula I and compounds 2 and 6 using the following protocol. Freshly-isolated PBMC's were derived from a healthy donor and were suspended to a concentration of 5 million cells/mL in culture medium ([…] containing L-glutamine) prior to the start of the experiment. 10 mL aliquots of PBMCs were transferred to 50 mL conical tubes with loosened caps and compounds were added to a final concentration of 2 μM. 1 mL aliquots were then transferred to the wells of a 24-well plate per sample. The PBMC-compound mixtures were incubated for 2 hours at 37° c./5% CO2 under gentle agitation. Following incubation, PBMCs were spun at 5000 RPM for 3 min and supernatants were aspirated without disturbing the cell pellet. For samples undergoing immediate analysis, samples were resuspended in pre-cooled 1× Tris-buffered saline and were transferred to 1.5 mL conical tubes containing 0.5 mL of nyosil M25. Samples/Oil aliquots were then spun for 1 min at 13,000 RPM. Following centrifugation, all media was aspirated from the tubes without disturbing the oil layer. Water was added on top of the oil layer and the spinning/aspiration process was repeated followed by an additional water wash. […]

[4] = test system: Dengue serotype 2 New Guinea C (NGC) strain; assay: DENV-2 Huh-7 EC50; format: cell-based; conditions: Dengue virus, Huh7 cells, 48 hours, qPCR
Procedure: Huh7 (Human hepatocarcinoma 7) cells were maintained in 10% FCS-containing DMEM complete media. On the day of the assay, cells were trypsinized (0.1% Trypsin-EDTA), washed and infected for 2 hours in serum-free DMEM with Dengue serotype 2 New Guinea C (NGC) strain at MOI=0.1 with gentle agitation at 37° C. After 2 hours, cells were washed with serum-free media and suspended in 10% FCS-containing DMEM (Gibco, supplemented with sodium pyruvate, NEAA, Penicillin-Streptomycin). […] were plated in triplicate in 96-well plates with compounds dispensed at graded doses (Hewlett-Packard D300 Digital Dispenser). All wells were normalized to 0.25% DMSO. At 48 hours, cells were washed with 1×PBS and all supernatants removed. Total RNA was extracted using RNEasy 96 plates (Qiagen) and used to generate first-strand cDNA using XLT cDNA 5× Supermix (QuantaBio). cDNA was used as a template in a Taqman qPCR duplex reaction specific to DENV2 viral and GAPDH gene expression. EC50 values were determined using Prism Graphpad software, with normalization to a positive control and no compound negative control wells.

SMILES	CC50 at 5 days [1]	in-vitro intracellular NTP formation in NHBEs [2]	in-vitro intracellular NTP formation in PBMCs [3]	EC50 [4]
CCC(CC)COC(=O)[C@H](C)N[P@](=O)(OC[C@@]1(C#N)O[C@@H](c2ccc3c(N)ncnn23)[C@H](O)[C@@H]1O)Oc1ccccc1 [Compound 6, 2-ethylbutyl ((S)-(((2R,3S,4R,5S)-5-(4-aminopyrrolo[2,1-f][1,2,4]triazin-7-yl)-2-cyano-3,4-dihydroxytetrahydrofuran-2-yl)methoxy)(phenoxy)phosphoryl)alaninate]	> 83.5 µM			
C[C@H](N[P@](=O)(OC[C@@]1(C#N)O[C@@H](c2ccc3c(N)ncnn23)[C@H](O)[C@@H]1O)Oc1ccccc1)C(=O)OC1CCCCC1 [Formula I, cyclohexyl ((S)-(((2R,3S,4R,5S)-5-(4-aminopyrrolo[2,1-f][1,2,4]triazin-7-yl)-2-cyano-3,4-dihydroxytetrahydrofuran-2-yl)methoxy)(phenoxy)phosphoryl)-L-alaninate]	> 44.4 µM	equal to or better	lower	1.63 µM
